From patent US20210069295A1, “GALECTINS CONTROL MTOR IN RESPONSE TO ENDOMEMBRANE DAMAGE AND PROVIDE A MECHANISM AND TARGET FOR THE TREATMENT OF AUTOPHAGY-RELATED DISEASES” (STC. UNM, priority 2017, published 2021)
Peptide text beside a SMILES is read from it.

Test system: mTOR
Experiment: mTOR activity by immunoblotting in HeLa cells (wildtype and TSC2-deleted)
Type: cell-based
Details: 100 μM GPN 1 h
Experimental: (A) Analysis of mTOR activity in TSC2-deleted (TSC2−/−) and wildtype (TSC2WT) HeLa cells treated with 100 μM GPN in full medium (Full) or starved in EBSS for 1 h. mTOR activity was monitored by immunoblotting analysis of S6K1 (T389) phosphorylation (phosphorylated S6K (p-T389) relative to total S6K). Ctrl, control (untreated cells). (B) Co-immunoprecipitation analysis of changes in interactions between Ragulator and Rag GTPases following treatment with GPN. HEK293T cells stably expressing FLAG-metap2 (control) or FLAG-p14 were treated with 100 μM GPN in full medium for 1 h. Cell lysates were immunoprecipitated (IP) with anti-FLAG antibody and immunoblotted for endogenous RagA or RagC. […] (D) Analysis of mTOR activity in HEK293T cells or HEK293T cells stably expressing constitutively active RagB GTPase (RagBQ99L) treated with 100 μM GPN in full medium or starved in EBSS for 1 h. mTOR activity was monitored as in A. Data, means±SEM, (n=3), † not significant, **p<0.01, ANOVA. […] (F) Quantification by HC of overlaps between mTOR and LAMP2 (representative images shown in FIG. S2C) in HEK293T cells and HEK293T cells stably expressing constitutively active RagB GTPase (RagBQ99L) treated with 100 μM GPN in full medium for 1 h. Data, means±SEM, n≥3 independent experiments (500 primary objects counted per well; ≥5 wells/sample per each experiment); † p≥0.05, *p<0.05, ANOVA. […]

In the case of `NCC(=O)N[C@@H](Cc1ccccc1)C(=O)Nc1ccc2ccccc2c1` [GPN, glycyl-L-phenylalanine 2-naphththylamide] (HELM PEPTIDE1{G.F.[c1ccc2cc(N[*:1])ccc2c1]}$$$$V2.0), the “mTOR activity in different cell lines” value (HeLa cells, comparable to starvation) is reported as “inhibited mTOR activity” and the “mTOR activity in cells null for TSC2” value (TSC2-deleted HeLa cells) is reported as “inhibited mTOR”.
